Where a SMILES comes first, the peptide text is derived from it. Bridges are numbered along the chain shown (N, C = ends). [ ]: non-standard residue; d: D form. Hyp = O=C(O)[C@@H]1C[C@@H](O)CN1
Key:
Assay in all cases: cell-based
human α6/α3β4 nAChR = target: T1, human α6/α3β4 nAChR (Homo sapiens, UniProt P30926+P32297+Q15825)
T1 construct: expressed in transfected cells; host or cells: Xenopus laevis oocytes (cRNA injection, 1:1 ratio)

human α3β4 nAChR = target: T2, human α3β4 nAChR (Homo sapiens, UniProt P30926+P32297)
T2 construct: expressed in transfected cells; host or cells: Xenopus laevis oocytes (cRNA injection, 1:1 ratio)

human α6/α3β2β3 nAChR = target: T3, human α6/α3β2β3 nAChR (Homo sapiens, UniProt P17787+P32297+Q05901+Q15825)
T3 construct: expressed in transfected cells; host or cells: Xenopus laevis oocytes (cRNA injection, 1:1 ratio)
T3 sequence (P17787 whole entry, looked up): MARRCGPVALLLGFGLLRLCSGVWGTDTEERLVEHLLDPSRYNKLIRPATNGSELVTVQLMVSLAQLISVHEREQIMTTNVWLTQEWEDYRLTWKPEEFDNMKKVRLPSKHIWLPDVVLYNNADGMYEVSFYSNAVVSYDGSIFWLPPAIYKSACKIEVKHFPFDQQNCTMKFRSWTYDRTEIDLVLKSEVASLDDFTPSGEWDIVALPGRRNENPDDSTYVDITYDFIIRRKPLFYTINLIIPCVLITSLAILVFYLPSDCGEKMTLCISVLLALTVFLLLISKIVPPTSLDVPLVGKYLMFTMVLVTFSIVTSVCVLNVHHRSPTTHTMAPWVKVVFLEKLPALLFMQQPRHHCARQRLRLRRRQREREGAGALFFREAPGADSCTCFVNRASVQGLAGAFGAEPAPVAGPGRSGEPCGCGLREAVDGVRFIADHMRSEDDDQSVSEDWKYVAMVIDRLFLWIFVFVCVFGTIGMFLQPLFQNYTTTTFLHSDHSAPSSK
T3 sequence (P32297 whole entry, looked up): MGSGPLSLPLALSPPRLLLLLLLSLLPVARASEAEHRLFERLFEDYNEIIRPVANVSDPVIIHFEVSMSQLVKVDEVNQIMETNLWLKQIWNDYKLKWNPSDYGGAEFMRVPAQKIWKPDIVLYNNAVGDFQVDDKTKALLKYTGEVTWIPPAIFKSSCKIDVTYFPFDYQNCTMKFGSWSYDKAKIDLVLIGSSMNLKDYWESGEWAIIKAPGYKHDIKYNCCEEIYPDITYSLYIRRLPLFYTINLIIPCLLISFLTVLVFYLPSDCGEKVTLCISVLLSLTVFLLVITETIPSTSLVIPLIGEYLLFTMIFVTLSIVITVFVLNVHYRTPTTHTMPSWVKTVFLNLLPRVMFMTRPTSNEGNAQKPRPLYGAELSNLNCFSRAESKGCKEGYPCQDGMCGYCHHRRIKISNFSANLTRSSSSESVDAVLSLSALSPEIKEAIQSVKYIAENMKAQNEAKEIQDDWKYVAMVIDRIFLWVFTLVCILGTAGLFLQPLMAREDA
T3 sequence (Q05901 whole entry, looked up): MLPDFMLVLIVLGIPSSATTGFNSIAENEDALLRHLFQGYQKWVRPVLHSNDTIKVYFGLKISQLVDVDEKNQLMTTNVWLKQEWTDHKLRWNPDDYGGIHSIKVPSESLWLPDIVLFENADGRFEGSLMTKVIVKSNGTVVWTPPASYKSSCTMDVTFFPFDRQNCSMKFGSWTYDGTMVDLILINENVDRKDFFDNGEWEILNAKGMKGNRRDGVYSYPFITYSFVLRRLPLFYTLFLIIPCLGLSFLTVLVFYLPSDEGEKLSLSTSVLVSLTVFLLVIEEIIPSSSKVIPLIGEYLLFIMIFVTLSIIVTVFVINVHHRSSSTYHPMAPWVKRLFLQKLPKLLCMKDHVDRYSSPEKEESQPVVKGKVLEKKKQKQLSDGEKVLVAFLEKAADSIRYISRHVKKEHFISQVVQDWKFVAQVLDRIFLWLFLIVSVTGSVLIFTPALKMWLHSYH
T3 sequence (Q15825 whole entry, looked up): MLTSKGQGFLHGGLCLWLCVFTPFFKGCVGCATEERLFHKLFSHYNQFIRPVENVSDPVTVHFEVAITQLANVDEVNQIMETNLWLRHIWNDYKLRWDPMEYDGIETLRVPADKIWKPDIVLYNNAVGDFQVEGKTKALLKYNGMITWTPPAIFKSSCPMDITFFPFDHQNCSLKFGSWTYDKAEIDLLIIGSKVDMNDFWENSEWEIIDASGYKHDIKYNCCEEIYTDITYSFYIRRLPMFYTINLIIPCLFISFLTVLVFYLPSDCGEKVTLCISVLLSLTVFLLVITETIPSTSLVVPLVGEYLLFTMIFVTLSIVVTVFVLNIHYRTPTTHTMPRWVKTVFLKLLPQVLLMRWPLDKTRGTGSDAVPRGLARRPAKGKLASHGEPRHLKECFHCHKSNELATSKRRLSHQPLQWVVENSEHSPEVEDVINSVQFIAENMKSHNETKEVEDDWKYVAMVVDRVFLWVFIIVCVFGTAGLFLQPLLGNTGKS

T1 sequence (P30926 whole entry, looked up): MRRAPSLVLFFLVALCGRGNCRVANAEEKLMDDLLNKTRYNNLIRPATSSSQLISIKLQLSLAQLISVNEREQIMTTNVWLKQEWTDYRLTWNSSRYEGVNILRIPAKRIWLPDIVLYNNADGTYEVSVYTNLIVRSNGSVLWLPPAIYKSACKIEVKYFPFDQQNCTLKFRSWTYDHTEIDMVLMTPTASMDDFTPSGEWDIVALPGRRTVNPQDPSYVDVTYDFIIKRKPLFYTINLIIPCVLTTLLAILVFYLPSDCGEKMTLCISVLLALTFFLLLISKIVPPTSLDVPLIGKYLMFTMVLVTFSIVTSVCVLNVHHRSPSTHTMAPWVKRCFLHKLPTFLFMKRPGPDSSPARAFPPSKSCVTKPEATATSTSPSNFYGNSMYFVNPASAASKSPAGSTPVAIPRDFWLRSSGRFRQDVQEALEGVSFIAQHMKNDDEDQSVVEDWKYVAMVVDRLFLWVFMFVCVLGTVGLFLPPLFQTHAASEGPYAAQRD
T1 sequence (P32297 whole entry, looked up): as the sequence (P32297 whole entry, looked up) above
T1 sequence (Q15825 whole entry, looked up): as the sequence (Q15825 whole entry, looked up) above
T2 sequence (P32297 32-505 limits assumed): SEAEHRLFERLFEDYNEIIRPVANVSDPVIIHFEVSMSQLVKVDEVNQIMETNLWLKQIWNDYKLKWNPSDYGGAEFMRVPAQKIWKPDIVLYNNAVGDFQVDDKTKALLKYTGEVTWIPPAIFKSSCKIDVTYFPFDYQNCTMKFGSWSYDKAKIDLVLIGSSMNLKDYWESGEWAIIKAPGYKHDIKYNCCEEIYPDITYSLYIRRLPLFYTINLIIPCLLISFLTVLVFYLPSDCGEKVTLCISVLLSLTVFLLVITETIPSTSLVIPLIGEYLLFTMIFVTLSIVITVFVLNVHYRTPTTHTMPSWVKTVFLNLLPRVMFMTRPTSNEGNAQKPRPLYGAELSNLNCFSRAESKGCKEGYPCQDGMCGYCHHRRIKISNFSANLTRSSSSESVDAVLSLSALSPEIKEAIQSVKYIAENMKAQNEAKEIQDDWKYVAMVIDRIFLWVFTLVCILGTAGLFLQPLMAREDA
T2 sequence (P30926 22-498 limits assumed): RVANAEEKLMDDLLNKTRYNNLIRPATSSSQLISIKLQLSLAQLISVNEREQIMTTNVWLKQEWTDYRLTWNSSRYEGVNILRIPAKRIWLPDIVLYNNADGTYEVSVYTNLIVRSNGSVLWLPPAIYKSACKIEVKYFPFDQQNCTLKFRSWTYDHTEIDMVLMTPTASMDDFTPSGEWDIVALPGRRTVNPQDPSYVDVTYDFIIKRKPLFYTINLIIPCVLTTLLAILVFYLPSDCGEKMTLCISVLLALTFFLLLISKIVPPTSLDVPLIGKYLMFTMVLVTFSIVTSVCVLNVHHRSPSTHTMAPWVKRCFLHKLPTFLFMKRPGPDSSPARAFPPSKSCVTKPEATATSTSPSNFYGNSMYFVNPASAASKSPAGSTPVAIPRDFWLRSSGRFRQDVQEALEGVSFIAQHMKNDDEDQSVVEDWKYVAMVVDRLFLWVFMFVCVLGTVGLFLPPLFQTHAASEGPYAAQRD

| SMILES | IC50 (human α6/α3β4 nAChR) | IC50 (human α3β4 nAChR) | fold selectivity, α6/α3β4 over α6/α3β2β3 (IC50 ratio) (human α6/α3β4 nAChR) | IC50 (human α6/α3β2β3 nAChR) |
| --- | --- | --- | --- | --- |
| CC(C)C[C@@H]1NC(=O)[C@H](C)NC(=O)[C@@H]2CSSC[C@H](NC(=O)CN)C(=O)N[C@@H](CSSC[C@@H](C(N)=O)NC(=O)[C@H](C)NC(=O)[C@H](CC(N)=O)NC(=O)[C@H](CO)NC(=O)[C@H](Cc3cnc[nH]3)NC(=O)[C@H](CCC(=O)O)NC1=O)C(=O)N[C@@H](CO)C(=O)N[C@@H](CC(N)=O)C(=O)N1CCC[C@H]1C(=O)N[C@@H](C(C)C)C(=O)N2 [MII[H9A,L15A]] (H-GCCSNPVCALEHSNAC-NH2; disulfide 2-8, 3-16) | 0.0133 µM | 1.4 µM |  |  |
| CC(C)C[C@@H]1NC(=O)[C@H](C(C)C)NC(=O)[C@H](C)NC(=O)[C@@H]2CSSC[C@H](NC(=O)CN)C(=O)N[C@@H](CSSC[C@@H](C(N)=O)NC(=O)[C@H](Cc3ccc(O)cc3)NC1=O)C(=O)N[C@@H](CO)C(=O)N[C@@H](C)C(=O)N1C[C@H](O)C[C@H]1C(=O)N1CCC[C@H]1C(=O)N2 [BuIA[T5A,P6O]] (H-GCCSA[Hyp]PCAVLYC-NH2; disulfide 2-8, 3-13) | 0.0111 µM |  | > 900 fold | > 10 µM |
